The record followed here is patent publication US9458179B2, “Quinuclidine, 1-azabicyclo[2.2.1]heptane, 1-azabicyclo [3.2.1]octane, and 1-azabicyclo[3.2.2]nonane compounds as alpha-7 nicotinic acetylcholine receptor ligands” (BRISTOL-MYERS SQUIBB COMPANY, priority 2012, dated 2016).

Broadly, the EC50 is the midpoint of the concentration-response curve.

Molecules are shown by their SMILES.

The target in one assay is T1, α-7 nicotinic ACh receptor ion channel (Rattus norvegicus, UniProt Q05941).
T1 construct: expressed in transfected cells
T1 sequence (Q05941 23-502): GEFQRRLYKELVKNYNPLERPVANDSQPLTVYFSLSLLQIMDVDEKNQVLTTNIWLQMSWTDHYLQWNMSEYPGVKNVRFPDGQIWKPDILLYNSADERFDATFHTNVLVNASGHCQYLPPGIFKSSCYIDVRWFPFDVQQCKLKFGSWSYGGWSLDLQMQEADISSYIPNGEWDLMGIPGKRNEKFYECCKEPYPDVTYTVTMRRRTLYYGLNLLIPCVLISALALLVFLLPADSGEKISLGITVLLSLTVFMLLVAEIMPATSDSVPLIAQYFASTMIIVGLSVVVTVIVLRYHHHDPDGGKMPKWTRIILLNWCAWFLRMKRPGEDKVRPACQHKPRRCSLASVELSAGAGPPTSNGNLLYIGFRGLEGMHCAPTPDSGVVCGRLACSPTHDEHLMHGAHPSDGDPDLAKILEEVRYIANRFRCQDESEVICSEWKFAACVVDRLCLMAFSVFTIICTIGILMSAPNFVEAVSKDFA
Kind of assay: Ca2+-sensitive fluorescence-based FLIPR assay of α7 nicotinic receptor channel function (agonist activity). Format: cell-based. The settings on record: FLIPR α7-HI (EC50, nM), HEK 293 cells, Ca2+ flux. On the procedure:
II) A Ca^2+-Sensitive, Fluorescence-Based Assay α-7 for Nicotinic Acetylcholine Receptor Channel Function in Mammalian Cells (“FLIPR”).
Lead compounds are evaluated for agonist activity at α-7, α3β4, α4αβ2, and α1β1δ1ε sub-types of nicotinic ACh receptor ion channels expressed in mammalian HEK 293 cells. Agonist potency and efficacy values are determined from kinetic fluorescence Ca^2+ influx measurements made using a 384 well FLIPR (Fluorescence Image Plate Reader). […] In this assay, channel expressing HEK cell lines seeded in 384 well assay plates are loaded with a membrane permeant fluorescent Ca^2+ indicator dye, whose 510 nm green emission signal increases in response to elevation of intracellular Ca^2+ concentration. The basal fluorescence from the cells is monitored in real time, followed by the acute addition of test compounds.
Reagents: The acetomethoxy (AM) ester of the Ca^2+ indicator dye Fluo-4 was obtained from InVitrogen, (Carlsbad, Calif.). Acetylcholine and all buffer constituents were purchased from Sigma Chemical Company, St. Louis, Mo. G418 and Minimal Essential Medium were purchased from InVitrogen Life Technologies, Carlsbad, Calif. Fetal bovine serum was purchased from (InVitrogen, Carlsbad, Calif.).
HEK-293 cells were grown in Minimal Essential Medium containing 10% (v/v) fetal bovine serum at 37° C. in a 5% CO2 incubator. HEK-293 cells stably expressing the ion channels were grown in the same medium with the addition of 500 μg/ml G418.
HEK-293 cells expressing the ion channels of interest were plated in 384 well, black-walled, clear-bottomed, poly-D-lysine coated plates at a density of ˜20,000 cells/well in 20 μl of Minimal Essential Medium containing 10% (v/v) fetal bovine serum and incubated for 2 days at 29° C. in a 5% CO2 incubator. Prior to assay, cells were loaded with the Fluo-4 AM ester. […] Dye loading was allowed to proceed for 90 minutes at room temperature at which time the dye loading solution was removed and replaced with 40 μl/well of Hanks buffer. Cells loaded with dye were loaded onto a FLIPR384 (Molecular Devices, Sunnyvale, Calif.). […] Emission was filtered using a 540+/−30 nm bandpass filter. For evaluation of the effects of test compounds using the Ca^2+ flux assay, compounds to be tested were provided in assay ready plates. For nicotinic receptor ion channel expressing cells, the assay was initiated by the addition of 20 μl/well of Hanks buffer containing test compounds. For all assays, data were collected at 1 Hz for 10 seconds (baseline), at which time the compound containing stimulus buffers are added, and further measurements collected at 0.33 Hz for 3 min.
The statistical robustness of the nicotinic receptor Ca^2+ flux assays is determined from blanks and totals wells. […] The raw fluorescence units data files generated on the FLIPR plate reader are automatically exported and processed by in-house data analysis tools. The reduced percent activation data for each concentration of test compound are fit using MathIQ fitting engine (ID Business Solutions Limited, Surrey, UK). Data were analyzed by fitting maximum amplitudes of change in fluorescence, for Ca^2+ flux for a given condition of test compound. […] Test compound efficacy values (Ymax values) are expressed relative to a maximal response to acetylcholine in the total wells.
Background: Calcium assays in cells follow changes in intracellular calcium, usually with a dye or a luminescent sensor.
As to `c1csc(NC2=NCC3(CN4CCC3CC4)N2)n1` (centres unmarked) [Example 9], the EC50 came out at 1060 nM.

`CN1C(Nc2cc3ccccc3cn2)=NCC12CN1CCC2CC1` (centres unmarked) [Example 15]: the EC50 came out at 787 nM. Same read-out and setting: next, `Clc1cnc(NC2=NCC3(CN4CCC3CC4)N2)nc1` (centres unmarked) [Example 17]: 286 nM; `CN1C(Nc2ccc3ccccc3n2)=NCC12CN1CCC2CC1` (centres unmarked) [Example 40]: 942 nM.

The same assay, now with this note: FLIPR α7-HI (EC50, nM), HEK 293 cells, Ca2+ flux; Table 1, activity class.
Regarding `c1ccc2sc(NC3=NCC4(CN5CCC4CC5)N3)nc2c1` (single isomer, unassigned) [Example 11a], the EC50 is < 100 nM. For `c1ccc2sc(NC3=NCC4(CN5CCC4CC5)N3)nc2c1` (single isomer, unassigned) [Example 11b], the EC50 was in the range of 1000 to 100000 nM. Still for that read-out and setting: next, `Clc1ccc2nc(NC3=NCC4(CN5CCC4CC5)N3)sc2n1` (single isomer, unassigned) [Example 28a]: < 100 nM. `Clc1ccc2nc(NC3=NCC4(CN5CCC4CC5)N3)sc2n1` (single isomer, unassigned) [Example 28b]: the EC50 was in the range of 1000 to 100000 nM. `COc1ccc2nc(NC3=NCC4(CN5CCC4CC5)N3)sc2c1` (centres unmarked) [Example 1, N-(6-Methoxy-1,3-benzothiazol-2-yl)-1′,5′-dihydrospiro[4-azabicyclo[2.2.2]octane-2,4′-imidazol]-2′-amine] gave an EC50 of 100 to 1000 nM. Regarding `COc1ccc2nc(NC3=NCC4(CN5CCC4CC5)N3C)sc2c1` (centres unmarked) [Example 2], the EC50 was in the range of 100 to 1000 nM. With `CCN1C(Nc2nc3ccc(OC)cc3s2)=NCC12CN1CCC2CC1` (centres unmarked) [Example 3], the half-maximal effective concentration (EC50) was 100 to 1000 nM. With `CN1C(Nc2ncc(-c3ccccc3)s2)=NCC12CN1CCC2CC1` (centres unmarked) [Example 5], the 50% effective concentration (EC50) is 1000 to 100000 nM.

Compound `CCN1C(Nc2ncc(-c3ccccc3)s2)=NCC12CN1CCC2CC1` (centres unmarked) [Example 6] came in with an EC50 of 1000 to 100000 nM. `Clc1cnc(NC2=NCC3(CN4CCC3CC4)N2)cn1` (centres unmarked) [Example 7, N-(5-Chloro-2-pyrazinyl)-1′,5′-dihydrospiro[4-azabicyclo[2.2.2]octane-2,4′-imidazol]-2′-amine] displayed an EC50 of 100 to 1000 nM. In the case of `Cc1ccc2nc(NC3=NCC4(CN5CCC4CC5)N3)oc2c1` (centres unmarked) [Example 8, N-(6-Methyl-1,3-benzoxazol-2-yl)-1′,5′-dihydrospiro[4-azabicyclo[2.2.2]octane-2,4′-imidazol]-2′-amine], the EC50 is < 100 nM. On to `Cc1ccc2nc(NC3=NCC4(CN5CCC4CC5)N3)oc2c1` (centres unmarked) [Example 8a], for which the EC50 is < 100 nM. `Cc1ccc2nc(NC3=NCC4(CN5CCC4CC5)N3)oc2c1` (centres unmarked) [Example 8b] came in with an EC50 of 1000 to 100000 nM. Compound `c1csc(NC2=NCC3(CN4CCC3CC4)N2)n1` (centres unmarked) [Example 9] showed an EC50 of 1000 to 100000 nM. Regarding `CN1C(Nc2nccs2)=NCC12CN1CCC2CC1` (centres unmarked) [Example 10], the EC50 lay within 1000 to 100000 nM. Regarding `c1ccc2sc(NC3=NCC4(CN5CCC4CC5)N3)nc2c1` (centres unmarked) [Example 11], the EC50 was < 100 nM. In turn, `CN1C(Nc2nc3ccccc3s2)=NCC12CN1CCC2CC1` (centres unmarked) [Example 12] showed an EC50 of 100 to 1000 nM. On the same count and under the same terms, the figure for `Clc1ccc(NC2=NCC3(CN4CCC3CC4)N2)nc1` (centres unmarked) [Example 13] is 1000 to 100000 nM. The same measure, in the same setting: the figure for `CN1C(Nc2ccc(Cl)cn2)=NCC12CN1CCC2CC1` (centres unmarked) [Example 14] is 1000 to 100000 nM; for `CN1C(Nc2cc3ccccc3cn2)=NCC12CN1CCC2CC1` (centres unmarked) [Example 15] it is 100 to 1000 nM. In turn, `Clc1cnc(NC2=NCC3(CN4CCC3CC4)N2)nc1` (centres unmarked) [Example 17] gave an EC50 of 100 to 1000 nM. `CN1C(Nc2ncc(Cl)cn2)=NCC12CN1CCC2CC1` (centres unmarked) [Example 18] displayed an EC50 of 100 to 1000 nM. `COc1ncc2nc(NC3=NCC4(CN5CCC4CC5)N3)sc2n1` (centres unmarked) [Example 19, N-(5-Methoxy[1,3]thiazolo[5,4-d]pyrimidin-2-yl)-1′,5′-dihydrospiro[4-azabicyclo[2.2.2]octane-2,4′-imidazol]-2′-amine]: the EC50 was in the range of 1000 to 100000 nM.

For the compound `COc1cc(NC2=NCC3(CN4CCC3CC4)N2C)ncn1` (centres unmarked) [Example 21], the EC50 is 100 to 1000 nM.

With `Cc1nnc(NC2=NCC3(CN4CCC3CC4)N2C)nc1C` (centres unmarked) [Example 22], the EC50 was > 1e+06 nM. In the case of `c1ccc2c(NC3=NCC4(CN5CCC4CC5)N3)ncnc2c1` (centres unmarked) [Example 23], the EC50 was 100 to 1000 nM. As to `CN1C(Nc2ncnc3ccccc23)=NCC12CN1CCC2CC1` (centres unmarked) [Example 24], the EC50 is 1000 to 100000 nM.

As to `Clc1ccc(NC2=NCC3(CN4CCC3CC4)N2)nn1` (centres unmarked) [Example 25], the EC50 lay in the range of 1000 to 100000 nM.

Compound `CN1C(Nc2ccc(Cl)nn2)=NCC12CN1CCC2CC1` (centres unmarked) [Example 26] had an EC50 of 100 to 1000 nM. As to `CN1C(Nc2ncc3ccccc3n2)=NCC12CN1CCC2CC1` (centres unmarked) [Example 27], the EC50 lay in the range of 1000 to 100000 nM. Consider `Clc1ccc2nc(NC3=NCC4(CN5CCC4CC5)N3)sc2n1` (centres unmarked) [Example 28], for which the EC50 is < 100 nM.

As to `CN1C(Nc2nc3ccc(Cl)nc3s2)=NCC12CN1CCC2CC1` (centres unmarked) [Example 29], the EC50 was 100 to 1000 nM.

As to `c1cnc2sc(NC3=NCC4(CN5CCC4CC5)N3)nc2n1` (centres unmarked) [Example 32, N-[1,3]Thiazolo[4,5-b]pyrazin-2-yl-1′,5′-dihydrospiro[4-azabicyclo[2.2.2]octane-2,4′-imidazol]-2′-amine], the EC50 lay within 100 to 1000 nM. Compound `c1ccn2nc(NC3=NCC4(CN5CCC4CC5)N3)nc2c1` (centres unmarked) [Example 34] showed an EC50 of 100 to 1000 nM.

As for `CN1C(Nc2nc3ccccn3n2)=NCC12CN1CCC2CC1` (centres unmarked) [Example 35], the EC50 was in the range of 1000 to 100000 nM.

On to `c1ccc2nc(NC3=NCC4(CN5CCC4CC5)N3)cnc2c1` (centres unmarked) [Example 36], for which the EC50 was in the range of 100 to 1000 nM. `c1ccn2cc(NC3=NCC4(CN5CCC4CC5)N3)nc2c1` (centres unmarked) [Example 37]: the 50% effective concentration (EC50) was 1000 to 100000 nM. In turn, `COc1ncnc2sc(NC3=NCC4(CN5CCC4CC5)N3)nc12` (centres unmarked) [Example 38] had an EC50 of 1000 to 100000 nM. For the compound `c1ccc(COc2ccc3nc(NC4=NC5(CN4)CN4CCC5CC4)sc3n2)cc1` (centres unmarked) [Example 39, N-(5-(benzyloxy)[1,3]thiazolo[5,4-b]pyridin-2-yl)-1′,5′-dihydrospiro[4-azabicyclo[2.2.2]octane-2,4′-imidazol]-2′-amine], the EC50 was > 1e+06 nM. `CN1C(Nc2ccc3ccccc3n2)=NCC12CN1CCC2CC1` (centres unmarked) [Example 40] gave an EC50 of 100 to 1000 nM. `Cc1cnc2nc(NC3=NCC4(CN5CCC4CC5)N3)sc2n1` (centres unmarked) [Example 41] displayed an EC50 of 1000 to 100000 nM. The compound `O=c1ccc2nc(NC3=NCC4(CN5CCC4CC5)N3)sc2[nH]1` (centres unmarked) [Example 42, 2-(1′,5′-Dihydrospiro[4-azabicyclo[2.2.2]octane-2,4′-imidazol]-2′-ylamino)[1,3]thiazolo[5,4-b]pyridin-5 (4H)-one] had a half-maximal effective concentration (EC50) of 100 to 1000 nM. `Cc1nc(C)nc(NC2=NCC3(CN4CCC3CC4)N2)n1` (centres unmarked) [Example 43] came in with a concentration giving a half-maximal response (EC50) of 1000 to 100000 nM. Regarding `Fc1ccc2nc(NC3=NCC4(CN5CCC4CC5)N3)sc2n1` (centres unmarked) [Example 44, N-(5-Fluoro[1,3]thiazolo[5,4-b]pyridin-2-yl)-1′,5′-dihydrospiro[4-azabicyclo[2.2.2]octane-2,4′-imidazol]-2′-amine], the EC50 lay within 100 to 1000 nM. For the compound `CN1C(Nc2nc3ccc(F)nc3s2)=NCC12CN1CCC2CC1` (centres unmarked) [Example 45], the EC50 is 1000 to 100000 nM. With `COc1ccc2nc(NC3=NCC4(CN5CCC4CC5)N3)sc2n1` (centres unmarked) [Example 46], the EC50 lay in the range of 100 to 1000 nM. On the same count and under the same terms, next, `COc1ccc2nc(NC3=NCC4(CN5CCC4CC5)N3C)sc2n1` (centres unmarked) [Example 47]: 100 to 1000 nM. On to `CN(C)c1ccc2nc(NC3=NCC4(CN5CCC4CC5)N3)sc2n1` (centres unmarked) [Example 48, N˜2˜-(1′,5′-Dihydrospiro[4-azabicyclo[2.2.2]octane-2,4′-imidazol]-2′-yl)-N˜5˜,N˜5˜-dimethyl[1,3]thiazolo[5,4-b]pyridine-2,5-diamine], for which the EC50 lay in the range of 1000 to 100000 nM. Consider `Brc1ccc2nc(NC3=NCC4(CN5CCC4CC5)N3)sc2n1` (centres unmarked) [Example 49], for which the EC50 was 100 to 1000 nM.

Staying with this assay, now noted: FLIPR α7-HI (EC50, nM), HEK 293 cells, Ca2+ flux; Table 3, activity class.
`c1ccc2cc(NC3=NCCC4(CN5CCC4CC5)O3)ncc2c1` (single isomer, unassigned) [Example 76a] showed an EC50 of 100 to 1000 nM. Still for that read-out and setting: next, `c1ccc2cc(NC3=NCCC4(CN5CCC4CC5)O3)ncc2c1` (single isomer, unassigned) [Example 76b]: > 1e+06 nM.

The assay is the same for the next values; noted with them: HEK 293 cells, Ca2+ flux; read-out: FLIPR α7-HI (EC50).
Regarding `c1ccc2[nH]c(NC3=NCC4(CN5CCC4CC5)N3)nc2c1` (centres unmarked) [Example 16], the concentration giving a half-maximal response (EC50) amounted to 1290 nM.
